Here are results for two molecules from article PMC11483813, “Bombesin-Targeted Delivery of β-Carboline-Based Ir(III) and Ru(II) Photosensitizers for a Selective Photodynamic Therapy of Prostate Cancer” (Inorganic Chemistry, 2024).

On the set-up of data set [1]: method as in earlier work. Conditions: standard reference; H2O:DMSO (55:45); ref 6 (SI); cited from earlier work.
A further data set has as its system MRC-5 fibroblasts. It counts as cell-based, human. The settings on record: MRC-5; 4 h incubation, kept in the dark 1 h; MTT after 48 h; read-out: IC50 MRC-5 Dark. Here is the method:
(§1) The effect of Ir-H, Ir-Me, Ru-H, and Ru-Me on cell viability was evaluated in the A549 lung cancer and PC-3 prostate cancer cell lines by MTT assays. PC-3 cells were specifically chosen due to their high expression levels of GRPR on their surface, allowing for further evaluation of the activity of the BN3-derived metallopeptides Ir-BN and Ru-BN.[38],[51] In contrast, A549 cells express low levels of GRPR.[52] MRC-5 fibroblasts were used as a nonmalignant cell model.[53]Table 3 reports the half maximal inhibitory concentration (IC50) values obtained after treating the cells either under dark conditions or upon exposure to blue light at a dose of 24.1 J cm^–2. The photocytotoxicity index (PI), defined as the IC50,dark/IC50,light, is provided for each compound.
(§2) Stock solutions of the complexes and metallopeptides were initially prepared at a concentration of 5 mM in DMSO and then diluted in sterile distilled water to achieve a final concentration of 1 mM, with a resulting DMSO concentration of 20% v/v. Cells were seeded into 96-well plates at a density of 2500 cells/well for A549, 3500 cells/well for PC-3, and 5500 cells/well for MRC-5. Following 24 h of incubation for attachment, cells were treated in triplicate with freshly prepared working solutions of the compounds in the culture medium at concentrations ranging from 0.001 to 100 μM. The maximum DMSO concentration in the working solutions was 2% (v/v). The working concentrations for each compound were adjusted based on their cytotoxicity. Following a 4 h incubation period to allow internalization of the compounds into the cells, the plates were kept in dark conditions or exposed to blue (460 nm) or red (655 nm) light for 1 h using an LED system (LuxLight), providing a total dose of 24.1 J cm^–2. All plates were incubated in the dark for an additional 43 h. Cells were then washed with phosphate-buffered saline (PBS), and 100 μL of fresh culture medium containing 10% of 3-[4,5-dimethylthiazol-2-yl]-2,5 diphenyl tetrazolium bromide (MTT) solution (0.5 mg/mL) (Sigma- Aldrich) was added to each well. After a 2 h incubation period, the formazan crystals were dissolved in DMSO, and the absorbance was measured at 570 nm using a Multiscan Plate Reader (Synergy 4, Biotek, Winooski, USA). The concentration causing a 50% reduction in cell viability (IC50) was determined for each compound with the Gen5 software (BioTek). At least three independent experiments were conducted for each compound.

The test system of the next data set is A549 lung cancer cells. Type of data set: cell-based, human. Conditions: A549; 4 h incubation, kept in the dark 1 h; MTT after 48 h; read-out: IC50 A549 Dark. Here is the method:
as §1, §2

In data set [2] the test system is PC-3 prostate cancer cells. Type of data set: cell-based, human. The settings on record: PC-3; 4 h incubation, kept in the dark 1 h; MTT after 48 h; read-out: IC50 PC-3 Dark. How it is done:
as §1, §2

SMILES strings stand for the structures.

As for `O=C([O-])c1c(Cl)c(Cl)c(Cl)c(Cl)c1-c1c2cc(I)c(=O)c(I)c-2oc2c(I)c([O-])c(I)cc12.[Na+].[Na+]` [rose bengal], in data set [1], the “singlet oxygen quantum yield (ΦΔ)” value was 0.75.
Regarding `N.N.[Cl][Pt][Cl]` [Cisplatin, reference compound], the IC50 with MRC-5 fibroblasts stood at 5.34 ± 0.38 µM; with A549 lung cancer cells, 5.99 ± 1.2 µM; in data set [2], 5.55 ± 0.97 µM.
